Experimental data taken from PMC6321168, “Comparative Study on Excretive Characterization of Main Components in Herb Pair Notoginseng-Safflower and Single Herbs by LC–MS/MS” (Pharmaceutics, 2018).

Test: Fecal excretion study in rats after oral NS, SF or CNS (LC–MS/MS)
Type: in vivo
Conditions: rat feces
Experimental: The animal room was set at constant temperature of 20 ± 2 °C with humidity of 50 ± 20% and 12/12 h light/dark cycle.
Eighteen male rats were fasted for 12 h before starting the experiment. The rats were divided into three groups at random (n = 6) and received NS (60 mg/kg), SF (50 mg/kg), and NS (60 mg/kg) + SF (50 mg/kg), respectively, by oral gavage. The rats were placed in separate metabolic cages. The urine samples were collected at 0–2, 2–4, 4–6, 6–8, 8–12, 12–24, 24–36, 36–48, 48–72, 72–96, and 96–120 h. The feces samples were collected at 0–4, 4–8, 8–12, 12–24, 24–36, 36–48, 48–72, 72–96, and 96–120 h. The urine volume was recorded and the dry feces were measured for each collection period. Samples were stored at −80 °C until analysis.
Feces samples were homogenized in ultrapure water (1 g/15 mL), soaked for 30 min, ultrasonically extracted for 30 min and centrifuged at 9000 rpm for 8 min. An aliquot of 200 μL feces water extraction solution was mixed with 10 μL of IS and then extracted three times with water-saturated n-BuOH (150 μL). The upper organic phase was combined and evaporated to dryness using a ZLS-2 vacuum centrifugal concentrator. The residue was treated as the urine sample and a 1-μL aliquot was injected for LC–MS analysis.
Ultra fast liquid chromatography (UFLC) analysis was performed using a Shimadzu UFLC system (DGU-20A3R Degasser; LC-20AD pump; SIL-20AXR Autosampler; CTO-20AC Column Oven) (Nakagyo-Ku, Koyoto, Japan). […] Because of the different endogenous substances in the urine and feces samples, different elution gradients were used to alleviate the matrix effects for the analytes.
The mass spectrometric detection was performed on an ABSciex 4500 Qtrap mass spectrometer (ABSciex, Foster City, CA, USA) equipped with a negative electrospray ionization (ESI) interface using multiple reaction monitoring (MRM). The MS parameters were optimized under the selected ion monitoring conditions as follows: curtain gas, 35 psi; ionspray voltage, 4500 V; turbo gas temperature, 450 °C; GS1, 45 psi; GS2, 45 psi. All data were acquired and analyzed by Analyst software (Versions 1.6.2) from ABSciex.
The accumulative excretion percentage was calculated for each analyte as follows. Excretion at time (t) = [concentration of the analyte (ng/mL) at t] × total urine (or feces) volume (mL) at t. The cumulative excretion up to time t (mg) was expressed as a percent (%) cumulative excretion by dividing by the total amount of the analyte ingested (mg): % Cumulative Excretion = 100 × (Σt excretiont) total ingested.

Compound: CC(C)=CCC[C@](C)(O[C@@H]1O[C@H](CO)[C@@H](O)[C@H](O)[C@H]1O)[C@H]1CC[C@]2(C)[C@@H]1[C@H](O)C[C@@H]1[C@@]3(C)CC[C@H](O)C(C)(C)[C@@H]3[C@@H](O[C@@H]3O[C@H](CO)[C@@H](O)[C@H](O)[C@H]3O[C@@H]3O[C@@H](C)[C@H](O)[C@@H](O)[C@H]3O)C[C@]12C [ginsenoside Re]
- concentration at 4 h (male, Sprague Dawley, oral CNS 110 mg/kg, 4 h): 87 ± 124 ng/mL
- concentration at 8 h (male, Sprague Dawley, oral CNS 110 mg/kg, 8 h): 267 ± 204 ng/mL
- concentration at 12 h (male, Sprague Dawley, oral CNS 110 mg/kg, 12 h): 330 ± 26 ng/mL
- concentration at 24 h (male, Sprague Dawley, oral CNS 110 mg/kg, 24 h): 366 ± 20 ng/mL
- concentration at 36 h (male, Sprague Dawley, oral CNS 110 mg/kg, 36 h): 367 ± 26 ng/mL
- concentration at 48 h (male, Sprague Dawley, oral CNS 110 mg/kg, 48 h): 354 ± 28 ng/mL
- concentration at 72 h (male, Sprague Dawley, oral CNS 110 mg/kg, 72 h): 168 ± 69 ng/mL
- concentration at 96 h (male, Sprague Dawley, oral CNS 110 mg/kg, 96 h): 44 ± 43 ng/mL
- concentration at 4 h (male, Sprague Dawley, oral NS 60 mg/kg, 4 h): 323 ± 43 ng/mL
- concentration at 8 h (male, Sprague Dawley, oral NS 60 mg/kg, 8 h): 455 ± 18 ng/mL
- concentration at 12 h (male, Sprague Dawley, oral NS 60 mg/kg, 12 h): 401 ± 27 ng/mL
- concentration at 24 h (male, Sprague Dawley, oral NS 60 mg/kg, 24 h): 430 ± 15 ng/mL
- concentration at 36 h (male, Sprague Dawley, oral NS 60 mg/kg, 36 h): 421 ± 18 ng/mL
- concentration at 48 h (male, Sprague Dawley, oral NS 60 mg/kg, 48 h): 561 ± 26 ng/mL
- concentration at 72 h (male, Sprague Dawley, oral NS 60 mg/kg, 72 h): 81 ± 6 ng/mL
- concentration at 96 h (male, Sprague Dawley, oral NS 60 mg/kg, 96 h): 18 ± 1 ng/mL
- concentration at 120 h (male, Sprague Dawley, oral NS 60 mg/kg, 120 h): 17 ± 2 ng/mL
- Accumulative excretion amount (oral CNS 110 mg/kg, 4 h): 1.098 ± 1.616 µg
- Accumulative excretion percentage (oral CNS 110 mg/kg, 4 h): 0.234±0.345%
- Excretion amount (oral CNS 110 mg/kg, 4 h): 1.098 ± 1.616 µg
- Accumulative excretion amount (oral CNS 110 mg/kg, 8 h): 4.802 ± 4.393 µg
- Accumulative excretion percentage (oral CNS 110 mg/kg, 8 h): 1.022±0.936%
- Excretion amount (oral CNS 110 mg/kg, 8 h): 3.705 ± 2.813 µg
- Accumulative excretion amount (oral CNS 110 mg/kg, 12 h): 9.675 ± 4.726 µg
- Accumulative excretion percentage (oral CNS 110 mg/kg, 12 h): 2.051±1.001%
- Excretion amount (oral CNS 110 mg/kg, 12 h): 4.873 ± 1.226 µg
- Accumulative excretion amount (oral CNS 110 mg/kg, 24 h): 15.135 ± 5.426 µg
- Accumulative excretion percentage (oral CNS 110 mg/kg, 24 h): 3.203±1.152%
- Excretion amount (oral CNS 110 mg/kg, 24 h): 5.459 ± 1.584 µg
- Accumulative excretion amount (oral CNS 110 mg/kg, 36 h): 20.570 ± 6.347 µg
- Accumulative excretion percentage (oral CNS 110 mg/kg, 36 h): 4.364±1.343%
- Excretion amount (oral CNS 110 mg/kg, 36 h): 5.435 ± 1.413 µg
- Accumulative excretion amount (oral CNS 110 mg/kg, 48 h): 25.852 ± 7.369 µg
- Accumulative excretion percentage (oral CNS 110 mg/kg, 48 h): 5.469±1.568%
- Excretion amount (oral CNS 110 mg/kg, 48 h): 5.282 ± 1.513 µg
- Accumulative excretion percentage (oral CNS 110 mg/kg, 72 h): 6.027±1.613%
- Excretion amount (oral CNS 110 mg/kg, 72 h): 2.615 ± 1.424 µg
- Accumulative excretion amount (oral CNS 110 mg/kg, 96 h): 29.184 ± 7.675 µg
- Accumulative excretion percentage (oral CNS 110 mg/kg, 96 h): 6.182±1.623%
- Excretion amount (oral CNS 110 mg/kg, 96 h): 0.717 ± 0.713 µg
- Accumulative excretion amount (oral CNS 110 mg/kg, 120 h): 29.184 ± 7.675 µg
- Accumulative excretion percentage (oral CNS 110 mg/kg, 120 h): 6.182±1.623%
- Accumulative excretion amount (oral NS 60 mg/kg, 4 h): 4.585 ± 1.408 µg
- Accumulative excretion percentage (oral NS 60 mg/kg, 4 h): 0.852±0.261%
- Excretion amount (oral NS 60 mg/kg, 4 h): 4.585 ± 1.408 µg
- Accumulative excretion amount (oral NS 60 mg/kg, 8 h): 11.148 ± 3.459 µg
- Accumulative excretion percentage (oral NS 60 mg/kg, 8 h): 2.063±0.644%
- Excretion amount (oral NS 60 mg/kg, 8 h): 6.563 ± 2.122 µg
- Accumulative excretion amount (oral NS 60 mg/kg, 12 h): 16.907 ± 5.229 µg
- Accumulative excretion percentage (oral NS 60 mg/kg, 12 h): 3.122±0.971%
- Excretion amount (oral NS 60 mg/kg, 12 h): 5.759 ± 1.787 µg
- Accumulative excretion amount (oral NS 60 mg/kg, 24 h): 23.057 ± 7.062 µg
- Accumulative excretion percentage (oral NS 60 mg/kg, 24 h): 4.266±1.305%
- Excretion amount (oral NS 60 mg/kg, 24 h): 6.150 ± 1.850 µg
- Accumulative excretion amount (oral NS 60 mg/kg, 36 h): 29.162 ± 9.141 µg
- Accumulative excretion percentage (oral NS 60 mg/kg, 36 h): 5.397± 1.699%
- Excretion amount (oral NS 60 mg/kg, 36 h): 6.105 ± 2.098 µg
- Accumulative excretion amount (oral NS 60 mg/kg, 48 h): 37.268 ± 11.835 µg
- Accumulative excretion percentage (oral NS 60 mg/kg, 48 h): 6.892±2.193%
- Excretion amount (oral NS 60 mg/kg, 48 h): 8.106 ± 2.700 µg
- Accumulative excretion amount (oral NS 60 mg/kg, 72 h): 38.423 ± 12.180 µg
- Accumulative excretion percentage (oral NS 60 mg/kg, 72 h): 7.103±2.254%
- Excretion amount (oral NS 60 mg/kg, 72 h): 1.155 ± 0.306 µg
- Accumulative excretion amount (oral NS 60 mg/kg, 96 h): 38.685 ± 12.265 µg
- Accumulative excretion percentage (oral NS 60 mg/kg, 96 h): 7.149±2.268%
- Excretion amount (oral NS 60 mg/kg, 96 h): 0.262 ± 0.086 µg
- Accumulative excretion amount (oral NS 60 mg/kg, 120 h): 38.937 ± 12.350 µg
- Accumulative excretion percentage (oral NS 60 mg/kg, 120 h): 7.187±2.278%
- Excretion amount (oral NS 60 mg/kg, 120 h): 0.252 ± 0.091 µg
